Measured values published in patent US4477456A (priority 1982, dated 1984).

How the values were obtained:
[1] = tested on: characteristic stretching or writhing syndrome induced by phenylquinone; test: animal or person; assay type: in vivo, female white mice; details: for ED50: Mus musculus, po, 0.5 h, read-out: Effect ED50, Oral PQW
[2] = tested on: Straub tail induced by morphine; test: narcotic antagonist test: prevention of Straub tail induced by morphine sulfate; assay type: in vivo, Female CF1 S mice; details: for ED50: Mus musculus, sc, subcutaneous, challenge 30 mg/kg morphine sulfate i.p., read-out: Effect ED50, Subcutaneous Anti-Straub Tail
[3] = tested on: Straub tail induced by morphine; details: known narcotic antagonists, Blumberg et al.; cited from earlier work
[4] = tested on: anorexigenic effect (milk spots consumed); test: animal or person; assay type: in vivo, Female CF1 mice; details: Mus musculus, po, read-out: Anorexigenic Effect, Effective Dose

Compound	ED50 [1] [mg/kg]	ED50 [2] [mg/kg]	analgesic potency compared with morphine ([1]; mouse, in vivo)	prevention of the induction of Straub tail by morphine [3]	narcotic antagonism capability / antagonist character ([2]; Straub tail antagonism, in words)	minimal effective dose [4] [mg/kg]
CN1CC[C@]23c4c5ccc(O)c4O[C@H]2[C@@H](O)C=C[C@H]3[C@H]1C5 [Morphine, reference compound]	3	–	–	–	–	–
CC(O)C1CC2CCC13CN(CC1CC1)CCC31c3cccc(O)c3OC21 (stereo not shown) [Example 7, 3-Cyclopropylmethyl-5-(1-hydroxyethyl)-1,2,3,4,5,6,7,7a-octahydro-4a,7-ethanobenzofuro[3,2-e]isoquinolin-9-ol]	0.78	0.08	–	–	–	–
OCC1CC2CCC13CN(CC1CC1)CCC31c3cccc(O)c3OC21 (single isomer, unassigned) [Example 9, 3-cyclopropylmethyl-5-hydroxymethyl-1,2,3,4,5,6,7,7a-octahydro-4a,7-ethanobenzofuro[3,2-e]isoquinolin-9-ol]	0.28	–	several times greater potency than morphine	–	–	–
C=CCN1CC[C@]23c4c5ccc(O)c4O[C@H]2[C@@H](O)C=C[C@H]3[C@H]1C5 [Nalorphine]	–	–	–	prevent the induction of Straub tail in mice	–	–
CC(C)(C)C(C)(O)C1CC2CCC13CN(CC1CC1)CCC31c3cccc(O)c3OC21 (single isomer, unassigned) [Example 11, 3-Cyclopropylmethyl-5-(2-hydroxy-3,3-dimethyl-2-butyl)-1,2,3,4,5,6,7,7a-octahydro-4a,7-ethanobenzofuro[3,2-e]isoquinolin-9-ol]	5.2	–	–	–	–	–
CC(O)C1CC2C=CC13CN(CC1CC1)CCC31c3cccc(O)c3OC21 (stereo not shown) [Example 8, 3-Cyclopropylmethyl-5-(1-hydroxyethyl)-1,2,3,4,5,6,7,7a-octahydro-4a,7-ethenobenzofuro[3,2-e]isoquinolin-9-ol]	0.51	0.024	–	–	–	–
CCCN1CCC23c4cccc(O)c4OC2C2CCC3(CC2)C1.Cl (stereo not shown) [Example 4, 3-propyl-1,2,3,4,5,6,7,7a-octahydro-4a,7-ethanobenzofuro[3,2-e]isoquinolin-9-ol hydrochloride]	99	0.009	–	–	pure narcotic antagonists	7
CN1CCC23c4cccc(O)c4OC2C2CCC3(CC2)C1 (stereo not shown) [Example 2, 3-methyl-1,2,3,4,5,6,7,7a-octahydro-4a,7-ethanobenzofuro[3,2-e]isoquinolin-9-ol]	12	0.05	–	–	–	> 324
CCCN1CCC23c4cccc(OC)c4OC2C2CCC3(CC2)C1 (stereo not shown) [Example 3, 9-Methoxy-3-propyl-1,2,3,4,5,6,7,7a-octahydro-4a,7-ethanobenzofuro[3,2-e]isoquinoline]	> 135	0.19	–	–	–	–
Oc1cccc2c1OC1C3CCC4(CC3)CN(CC3CC3)CCC214 (stereo not shown) [Example 6, 3-Cyclopropylmethyl-1,2,3,4,5,6,7,7a-octahydro-4a,7-ethanobenzofuro[3,2-e]isoquinolin-9-ol]	4.4	0.005	–	–	–	46
C=CCN1CC[C@]23c4c5ccc(O)c4O[C@H]2C(=O)CC[C@@]3(O)[C@H]1C5 [Naloxone, reference compound]	–	–	–	prevent the induction of Straub tail in mice	–	4.8
CC(C)=CCN1CCC2(C)c3cc(O)ccc3CC1C2C (stereo not shown) [Pentazocine, reference compound]	56	4	–	–	–	–
COc1cccc2c1OC1C3CCC4(CC3)CN(C)CCC214 (stereo not shown) [Example 1, 9-methoxy-3-methyl-1,2,3,4,5,6,7,7a-octahydro-4a,7-ethanobenzofuro[3,2-e]isoquinoline]	20.5	> 18	–	–	–	20
